Experimental data published in the supplement of paper PMC10307832.

Legend:
Experiment in all cases: relative viability (nuclei count vs DMSO), 5 days (fraction); higher = more cells survive
[1] = system: UMC-11
In short: (§1)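 Cells from lung cancer lines were seeded into 1536-well plates and, one day later, dosed by pin tool. Treatments were either a single drug or a fixed dose of an anchor drug with five library-drug doses (not always all listed) in √10 steps. After 5 days, nuclei were stained in a one-step fixation (final 0.05% Triton X-100, 1% formaldehyde, 1 ug/ml Hoechst) and counted on 4× images, and relative viability is the treated-to-vehicle nuclei ratio, as the median of duplicate plates.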

[2] = system: NCI-H1734
In short: as §1

[3] = system: SK-LU-1
In short: as §1

[4] = system: COR-L23
In short: as §1

[5] = system: LXF-289
In short: as §1

[6] = system: NCI-H2085
In short: as §1

[7] = system: RERF-LC-KJ
In short: as §1

[8] = system: NCI-H1437
In short: as §1

[9] = system: NCI-H1651
In short: as §1

[10] = system: NCI-H3122
In short: as §1

[11] = system: NCI-H23
In short: as §1

[12] = system: NCI-H647
In short: as §1

[13] = system: A-427
In short: as §1

[14] = system: NCI-H358
In short: as §1

[15] = system: EKVX
In short: as §1

[16] = system: SW 900
In short: as §1

[17] = system: NCI-H2347
In short: as §1

[18] = system: NCI-H322M
In short: as §1

[19] = system: NCI-H460
In short: as §1

[20] = system: NCI-H2087
In short: as §1

[21] = system: LK-2
In short: as §1

[22] = system: NCI-H2405
In short: as §1

[23] = system: H3255
In short: as §1

[24] = system: PC-14
In short: as §1

[25] = system: NCI-H1993
In short: as §1

Work on Nc1cccc2c1CN(C1CCC(=O)NC1=O)C2=O (stereo not given) [Lenalidomide] + Nc1ncn([C@H]2C[C@H](O)[C@@H](CO)O2)c(=O)n1 [Decitabine] (partner 2 µM) yielded a relative viability ([1]; first compound 0.253 µM) of 0.46, a relative viability ([1]; first compound 0.8 µM) of 0.688 and a relative viability ([1]; first compound 2.53 µM) of 0.725. It also gave a relative viability ([1]; first compound 8 µM) of 0.621, a relative viability ([2]; first compound 0.253 µM) of 0.508 and a relative viability ([2]; first compound 0.8 µM) of 0.478. The relative viability ([2]; first compound 2.53 µM) was 0.568, the relative viability ([2]; first compound 8 µM) was 0.485 and the relative viability ([3]; first compound 0.253 µM) was 0.614. It also gave a relative viability ([3]; first compound 0.8 µM) of 0.58, a relative viability ([3]; first compound 2.53 µM) of 0.72 and a relative viability ([3]; first compound 8 µM) of 0.603. It also gave a relative viability ([4]; first compound 0.253 µM) of 0.416, a relative viability ([4]; first compound 0.8 µM) of 0.395 and a relative viability ([4]; first compound 2.53 µM) of 0.491. It also gave a relative viability ([4]; first compound 8 µM) of 0.409, a relative viability ([5]; first compound 0.253 µM) of 0.388 and a relative viability ([5]; first compound 0.8 µM) of 0.351. The relative viability ([5]; first compound 2.53 µM) was 0.393, the relative viability ([5]; first compound 8 µM) was 0.335 and the relative viability ([6]; first compound 0.253 µM) was 0.546. The relative viability ([6]; first compound 0.8 µM) was 0.542, the relative viability ([6]; first compound 2.53 µM) was 0.529 and the relative viability ([6]; first compound 8 µM) was 0.566. For the same molecule, the relative viability ([7]; first compound 0.253 µM) was 0.717, the relative viability ([7]; first compound 0.8 µM) was 0.655 and the relative viability ([7]; first compound 2.53 µM) was 0.65. For the same molecule, the relative viability ([7]; first compound 8 µM) was 0.774, the relative viability ([8]; first compound 0.253 µM) was 0.556 and the relative viability ([8]; first compound 0.8 µM) was 0.5. For the same molecule, the relative viability ([8]; first compound 2.53 µM) was 0.59, the relative viability ([8]; first compound 8 µM) was 0.648 and the relative viability ([9]; first compound 0.253 µM) was 0.631. It also gave a relative viability ([9]; first compound 0.8 µM) of 0.5, a relative viability ([9]; first compound 2.53 µM) of 0.645 and a relative viability ([9]; first compound 8 µM) of 0.582. For the same molecule, the relative viability ([10]; first compound 0.253 µM) was 0.375, the relative viability ([10]; first compound 0.8 µM) was 0.536 and the relative viability ([10]; first compound 2.53 µM) was 0.381. The relative viability ([10]; first compound 8 µM) was 0.386, the relative viability ([11]; first compound 0.253 µM) was 0.302 and the relative viability ([11]; first compound 2.53 µM) was 0.315. It also gave a relative viability ([11]; first compound 8 µM) of 0.305, a relative viability ([12]; first compound 0.253 µM) of 0.426 and a relative viability ([12]; first compound 0.8 µM) of 0.318. It also gave a relative viability ([12]; first compound 2.53 µM) of 0.428, a relative viability ([12]; first compound 8 µM) of 0.446 and a relative viability ([13]; first compound 0.253 µM) of 0.566. It also gave a relative viability ([13]; first compound 0.8 µM) of 0.573, a relative viability ([13]; first compound 2.53 µM) of 0.646 and a relative viability ([13]; first compound 8 µM) of 0.552. The relative viability ([14]; first compound 0.8 µM) was 0.228, the relative viability ([14]; first compound 2.53 µM) was 0.232 and the relative viability ([14]; first compound 8 µM) was 0.22. It also gave a relative viability ([15]; first compound 0.253 µM) of 0.326, a relative viability ([15]; first compound 0.8 µM) of 0.4 and a relative viability ([15]; first compound 2.53 µM) of 0.336. For the same molecule, the relative viability ([15]; first compound 8 µM) was 0.331, the relative viability ([16]; first compound 2.53 µM) was 0.51 and the relative viability ([16]; first compound 8 µM) was 0.532. For the same molecule, the relative viability ([17]; first compound 0.253 µM) was 0.616, the relative viability ([17]; first compound 0.8 µM) was 0.617 and the relative viability ([17]; first compound 2.53 µM) was 0.624. The relative viability ([17]; first compound 8 µM) was 0.566, the relative viability ([18]; first compound 0.253 µM) was 0.702 and the relative viability ([18]; first compound 0.8 µM) was 0.78. For the same molecule, the relative viability ([18]; first compound 2.53 µM) was 0.725, the relative viability ([18]; first compound 8 µM) was 0.688 and the relative viability ([19]; first compound 0.253 µM) was 0.402. The relative viability ([19]; first compound 0.8 µM) was 0.476, the relative viability ([19]; first compound 2.53 µM) was 0.64 and the relative viability ([19]; first compound 8 µM) was 0.649. It also gave a relative viability ([20]; first compound 0.253 µM) of 0.31, a relative viability ([20]; first compound 2.53 µM) of 0.303 and a relative viability ([20]; first compound 8 µM) of 0.292. It also gave a relative viability ([21]; first compound 0.253 µM) of 0.312, a relative viability ([21]; first compound 0.8 µM) of 0.177 and a relative viability ([21]; first compound 2.53 µM) of 0.36. It also gave a relative viability ([21]; first compound 8 µM) of 0.187, a relative viability ([22]; first compound 0.253 µM) of 0.719 and a relative viability ([22]; first compound 0.8 µM) of 0.817. It also gave a relative viability ([22]; first compound 2.53 µM) of 0.782, a relative viability ([22]; first compound 8 µM) of 0.632 and a relative viability ([23]; first compound 0.253 µM) of 0.592. For the same molecule, the relative viability ([23]; first compound 0.8 µM) was 0.556, the relative viability ([23]; first compound 2.53 µM) was 0.563 and the relative viability ([23]; first compound 8 µM) was 0.421. For the same molecule, the relative viability ([24]; first compound 0.253 µM) was 0.199, the relative viability ([24]; first compound 0.8 µM) was 0.189 and the relative viability ([24]; first compound 2.53 µM) was 0.24. It also gave a relative viability ([24]; first compound 8 µM) of 0.226, a relative viability ([25]; first compound 0.253 µM) of 0.658 and a relative viability ([25]; first compound 0.8 µM) of 0.588. For the same molecule, the relative viability ([25]; first compound 2.53 µM) was 0.529 and the relative viability ([25]; first compound 8 µM) was 0.51.
